Measured values as given in US20130112197A1, “OPERATING METHOD FOR AN AEROSOL DELIVERY DEVICE AND AEROSOL DELIVERY DEVICE” (PARI Pharma GmbH, priority 2010, published 2013).

Assay: clinical trial: nasal and paranasal aerosol deposition by gamma camera imaging
Assay type: in vivo, human
Excerpt: The method of the clinical trial was: Sinus air ventilation, nasal and paranasal aerosol deposition as well as nasal clearance of aerosols delivered by different pulsating airflows, such as a combined mode in comparison to intermittent mode. This was studied in 12 healthy volunteers using gamma camera imaging with 81 mKr gas and 99 mTc-DTPA aerosol. Masking techniques were used to visualize and quantify nasal and sinus aerosol deposition and retention.

- total sinus deposition in % of the deposited activity (12 healthy volunteers, maxillary and sphenoid sinuses, pulsating airflows): up to 24%
- total sinus deposition in % of the deposited activity (combined mode, proband 1, post FESS volunteer): 14%
- total sinus deposition in % of the deposited activity (combined mode, proband 2, normal volunteer): 6%
- total sinus deposition in % of the deposited activity (intermittent mode, proband 1, post FESS volunteer): 24%
- total sinus deposition in % of the deposited activity (intermittent mode, proband 2, normal volunteer): 0%
Compound: O=C([O-])CN(CCN(CC(=O)[O-])CC(=O)[O-])CCN(CC(=O)[O-])CC(=O)[O-].[99Tc+4] [99 mTc-DTPA]
